Where two headings read alike, the source gives them in different places.
How the values were obtained:
[1] = Cytotoxicity, MTT assay, HFF; assay type: cell-based, human; conditions: human, HFF cells
Method: (§1) The human monocytic cell line THP-1 was cultivated in RPMI medium supplemented with 10% FCS, 2 mM GlutaMAX, 100 U/ml penicillin, and 100 μg/ml streptomycin. HFF cells were cultivated in Dulbecco's modified Eagle's medium (DMEM) with Earle's salts containing 10% FCS, 10 mM HEPES, 1 mM sodium pyruvate, 2 mM GlutaMAX, 100 U/ml penicillin, and 100 μg/ml streptomycin. The THP-1 and HFF cells were maintained in a 5% CO2 incubator at 37 °C. Cytotoxicity was evaluated via the MTT assay, and the IC50 values were calculated using Prism software (Prism 4 for Mac OS X, version 5.0b, December, 2008).

T. gondi RH-YFP [2] = assay: Anti-Toxoplasma activity in infected HFF monolayers, type I RH-YFP (parasitic index); assay type: cell-based, Toxoplasma gondii; conditions: for IS^a selectivity index for T. gondi: IC50 HFF / IC50 T. gondi RH-YFP; for IC50: 24 h, type I strain, in HFF, read-out: T. gondi RH-YFP IC50
[3] = system: T. brucei MHOM/CI/81/DAL967; assay: Antitrypanosomal activity, T. brucei; assay type: cell-based, Trypanosoma brucei gambiense
Method: (§2) The antitrypanosomatid activity of the compounds was ascertained as follows. Leishmania parasites were cultured at 26 °C in SDM-79 medium supplemented with 10% fetal calf serum (FCS), and the antileishmanial activity was determined according to a previously published protocol for LUC-expressing and wild-type Leishmania ([Sereno et al., 2001], [Abbassi et al., 2008]). Trypanosoma brucei gambiense were grown at 26 °C in Cunningham's medium supplemented with 10% FCS, 2 mM GlutaMAX-1 (Gibco, USA), 100 U/ml penicillin, 100 μg/ml streptomycin and […] bovine hemin. The epimastigote form of Trypanosoma cruzi (strain Y cl7 scl2, lineage Tc2) (kindly provided by Philippe Truc and Christian Barnabé, UMR 177 IRD-CIRAD InterTryp, Montpellier, France) were grown at 26 °C in liver infusion tryptose (LIT) medium, supplemented with 10% FCS, 2 mM GlutaMAX™-I, 100 U/ml penicillin, 100 μg/ml streptomycin and bovine hemin (20 mg/l) (Gibco). The antitrypanosomatids activity was determined using a protocol that was initialy set up for wild-type Leishmania ([Abbassi et al., 2008]). To assess the drug activity on Toxoplasma gondii, confluent human foreskin fibroblast (HFF) monolayers were infected with YFP-type I Rh kindly provided by B. Striepen, see ([Striepen et al., 1998]) or Tomato-type II Pru kindly provided by N. Blanchard (Toulouse), expressing parasites at 5 × 10^4 per well, which were then centrifuged for 30 s at 1300 rpm and incubated for 30 min in a water bath at 37 °C to allow invasion. The wells were then washed three times with PBS to eliminate extracellular parasites, and the drugs were added at various concentrations ranging from 1 to 50 μM. After incubation for 24 h at 37 °C in a humidified atmosphere containing 5% CO2, the cells were fixed in 2.5% methanol-free formaldehyde (Tebu-bio)/PBS for 30 min at room temperature. Nuclei were stained with Hoechst 33258 (2 μg/ml, Molecular Probes) for 20 min and then washed three times with water for 10 min each time. The number of infected cells, i.e., cells harboring a parasitophorous vacuole, and the number of parasites per vacuole were determined using an Olympus ScanR microscope ( × 20 objective) and ScanR software. The parasitic index in % compared to the control was calculated as follows: (PI=((number of parasite/100 cells in treated wells) x (% of infected macrophage in treated well)/(number of parasite/100 cells in untreated wells) x (% of infected macrophage in untreated wells))*100).

[4] = system: L. tropica MHOM/BR/73/5-ASKM; assay: Antileishmanial activity, L. tropica promastigotes; assay type: cell-based, Leishmania tropica
Method: as §2

[5] = system: L. braziliensis MHOM/BR/75/M209; assay: Antileishmanial activity, L. braziliensis promastigotes (luciferase expressing strain); assay type: cell-based, Leishmania braziliensis
Method: as §2

Leishmania = assay: Antileishmanial activity, Leishmania species summarised in text; assay type: cell-based, Leishmania spp.; conditions: abstract sentence also covers antitrypanosomal activity, read-out: antileishmanial activity IC50, summarised over species
Method: The antitrypanosomatid activity of the compounds was ascertained as follows. Leishmania parasites were cultured at 26 °C in SDM-79 medium supplemented with 10% fetal calf serum (FCS), and the antileishmanial activity was determined according to a previously published protocol for LUC-expressing and wild-type Leishmania ([Sereno et al., 2001], [Abbassi et al., 2008]). Trypanosoma brucei gambiense were grown at 26 °C in Cunningham's medium supplemented with 10% FCS, 2 mM GlutaMAX-1 (Gibco, USA), 100 U/ml penicillin, 100 μg/ml streptomycin and 20 mg/ml bovine hemin. […] The antitrypanosomatids activity was determined using a protocol that was initialy set up for wild-type Leishmania ([Abbassi et al., 2008]). […] The number of infected cells, i.e., cells harboring a parasitophorous vacuole, and the number of parasites per vacuole were determined using an Olympus ScanR microscope ( × 20 objective) and ScanR software. The parasitic index in % compared to the control was calculated as follows: (PI=((number of parasite/100 cells in treated wells) x (% of infected macrophage in treated well)/(number of parasite/100 cells in untreated wells) x (% of infected macrophage in untreated wells))*100).

[6] = system: L. infantum MHOM/MA/67/ITMAP-264; assay: Antileishmanial activity, L. infantum promastigotes (luciferase expressing strain); assay type: cell-based, Leishmania infantum; conditions: for IS^b selectivity index for L. infantum: IC50 THP-1 / IC50 Leishmania infantum (footnote); for IC50: promastigotes, luciferase expressing strain
Method: as §2

[7] = system: HeLa nuclear extract (HDAC 1, 2, 6, and 8 predominant); assay: Fluorometric HDAC assay, HeLa nuclear extract; assay type: biochemical; conditions: HeLa nuclear extract; read-out: HDACi HeLa IC50
Method: The HDACi effect against HeLa nuclear extracts and recombinant proteins were measured using a fluorometric HDAC assay kit (Active Motif, Belgium) according to the manufacturer's instructions. […] A negative control containing trichostatin A at a final concentration of 2 μM was analyzed for each independent experiment.

[8] = Cytotoxicity, MTT assay, THP-1; assay type: cell-based, human; conditions: human, THP-1 cells (monocytic cell line); MTT assay
Method: as §1

HFF cells = assay: Cytotoxicity, MTT assay, HFF; assay type: cell-based, human
Method: as §1

THP-1 cells = assay: Cytotoxicity, MTT assay, THP-1; assay type: cell-based, human; conditions: MTT assay
Method: as §1

T. gondi RH-YFP [9] = system: T. gondi RH-YFP; parameters: method as in Butler et al., 2013; conditions: ref Butler et al., 2013; read-out: anti-Toxoplasma IC50, literature; cited from earlier work

O=C(NO)c1ccc(CNC(=O)c2cccc(F)c2)cc1 [Compound 345, 4-{[(3-fluorophenyl)formamido]methyl}-N-hydroxybenzamide]
IC50 [1]: 58.3 ± 1.2 µM
IS^a selectivity index for T. gondi (T. gondi RH-YFP [2]): 11.6
IC50 ([3]; Trypanosoma brucei): > 60 µM
IC50 ([4]; Leishmania tropica): 35.3 ± 12.2 µM
IC50 ([5]; Leishmania braziliensis): 23.5 ± 1.5 µM
IC50 (Leishmania): 15 to 50 µM
IS^b selectivity index for L. infantum [6]: 0.3
IC50 ([6]; Leishmania infantum): 27.2 ± 2.5 µM
IC50 [7]: 0.866 ± 0.4 µM

O=C(NO)c1ccc(NC(=O)c2cccc(F)c2)cc1 [Compound 349, 4-(3-fluorobenzamido)-N-hydroxybenzamide]
IC50 [1]: > 400 µM
IC50 (T. gondi RH-YFP [2]; Toxoplasma gondii): > 50 µM
IC50 ([3]; Trypanosoma brucei): > 60 µM
IC50 ([4]; Leishmania tropica): > 60 µM
IC50 ([5]; Leishmania braziliensis): > 60 µM
IC50 [8]: 264 ± 8 µM
IC50 ([6]; Leishmania infantum): > 60 µM
IC50 [7]: 0.633 ± 0.041 µM

O=C(NO)c1ccc(CNS(=O)(=O)c2cccc(F)c2)cc1 [Compound 350, 4-(3-fluorobenzenesulfonamidomethyl)-N-hydroxybenzamide]
IC50 [1]: 300 ± 50 µM
IS^a selectivity index for T. gondi (T. gondi RH-YFP [2]): 7.5
IC50 (T. gondi RH-YFP [2]; Toxoplasma gondii): < 50 µM
IC50 ([3]; Trypanosoma brucei): > 60 µM
IC50 ([4]; Leishmania tropica): > 60 µM
IC50 ([5]; Leishmania braziliensis): > 60 µM
IC50 [8]: > 400 µM
IC50 ([6]; Leishmania infantum): > 60 µM

O=C(NO)c1ccc(NS(=O)(=O)c2cccc(F)c2)cc1 [Compound 351, 4-(3-fluorobenzenesulfonamido)-N-hydroxybenzamide]
IC50 [1]: 116 ± 3 µM
IC50 (T. gondi RH-YFP [2]; Toxoplasma gondii): > 50 µM
IC50 ([3]; Trypanosoma brucei): > 60 µM
IC50 ([4]; Leishmania tropica): > 60 µM
IC50 ([5]; Leishmania braziliensis): > 60 µM
IC50 [8]: 33.5 ± 15 µM
IS^b selectivity index for L. infantum [6]: <1
IC50 ([6]; Leishmania infantum): > 60 µM
IC50 [7]: 0.881 ± 0.083 µM

Cc1nc(-c2ccc(C(=O)NCc3ccc(C(=O)NO)cc3)cc2)cs1 [Compound 360]
IC50 (HFF cells): 22.6 ± 9.5 µM
IC50 [3]: > 60 µM
IC50 [4]: 55 ± 15 µM
IC50 [5]: > 60 µM
IC50 (THP-1 cells): 2.2 ± 0.5 µM
IC50 [6]: > 60 µM
IC50 [7]: 0.399 ± 0.137 µM

Cc1nc(-c2ccc(C(=O)Nc3ccc(C(=O)NO)cc3)cc2)cs1 [Compound 361]
IC50 (HFF cells): 25 ± 4 µM
IC50 (T. gondi RH-YFP [2]): > 50 µM
IC50 [3]: > 60 µM
IC50 [4]: > 60 µM
IC50 [5]: > 60 µM
IC50 (THP-1 cells): > 400 µM
IC50 [6]: > 60 µM
IC50 [7]: > 1.8 µM

COc1cccc(CC(=O)NCc2ccc(C(=O)NO)cc2)c1 [Compound 362, N-hydroxy-4-{[2-(3-methoxyphenyl)acetamido]methyl}benzamide]
IC50 [1]: > 400 µM
IS^a selectivity index for T. gondi (T. gondi RH-YFP [2]): >7.6
IC50 (T. gondi RH-YFP [2]; Toxoplasma gondii): > 50 µM
IC50 ([3]; Trypanosoma brucei): > 60 µM
IC50 ([4]; Leishmania tropica): > 60 µM
IC50 ([5]; Leishmania braziliensis): > 60 µM
IC50 [8]: 30.5 ± 3 µM
IS^b selectivity index for L. infantum [6]: <1
IC50 ([6]; Leishmania infantum): > 60 µM
IC50 [7]: 0.518 ± 0.146 µM

CCc1nc(N)nc(N)c1-c1ccc(Cl)cc1 [pyrimethamine]
IC50 (T. gondi RH-YFP [9]): 0.4 µM
